The compounds below were run against T1, sodium-proton exchanger of subtype 3 (NHE3) (Homo sapiens, UniProt P48764) (assay: Recovery of intracellular pH (pHi) after acidification in LAP1 cells stably expressing NHE3 (BCECF fluorescence, FLIPR)). Conditions: LAP1 cells stably expressing NHE3; pH recovery after acidification; range 1 is % inhibition at 10 μM; read-out: Activity range (inhibitory effect on NHE3).
T1 construct: expressed in transfected cells
T1 sequence (P48764 26-834): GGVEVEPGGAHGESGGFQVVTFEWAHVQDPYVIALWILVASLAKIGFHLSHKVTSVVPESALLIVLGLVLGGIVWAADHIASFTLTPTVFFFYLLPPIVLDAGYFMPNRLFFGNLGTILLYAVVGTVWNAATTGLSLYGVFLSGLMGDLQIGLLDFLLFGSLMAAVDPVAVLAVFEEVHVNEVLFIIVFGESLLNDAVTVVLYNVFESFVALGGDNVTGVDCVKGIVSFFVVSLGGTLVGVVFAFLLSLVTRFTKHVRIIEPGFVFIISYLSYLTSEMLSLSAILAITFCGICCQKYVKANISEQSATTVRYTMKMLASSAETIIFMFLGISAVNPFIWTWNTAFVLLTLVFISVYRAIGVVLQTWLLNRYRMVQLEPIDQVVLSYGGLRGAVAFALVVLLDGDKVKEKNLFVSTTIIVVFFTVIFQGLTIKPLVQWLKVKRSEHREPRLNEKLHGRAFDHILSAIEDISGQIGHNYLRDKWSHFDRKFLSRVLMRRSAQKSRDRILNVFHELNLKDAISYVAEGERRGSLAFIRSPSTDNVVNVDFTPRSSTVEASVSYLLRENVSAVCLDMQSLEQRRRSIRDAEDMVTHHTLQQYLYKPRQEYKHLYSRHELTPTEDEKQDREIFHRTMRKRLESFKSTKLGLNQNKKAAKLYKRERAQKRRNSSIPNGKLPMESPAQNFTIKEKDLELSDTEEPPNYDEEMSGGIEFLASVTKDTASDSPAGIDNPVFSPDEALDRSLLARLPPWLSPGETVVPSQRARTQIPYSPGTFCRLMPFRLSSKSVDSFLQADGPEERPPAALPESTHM
Type: cell-based

CS(=O)(=O)c1ccc(O[C@H]2c3ccccc3C[C@@H]2N2CCCC2)cc1Cl (racemic) [Example 268, 1-[rac-trans-(1,2)-1-(3-chloro-4-methanesulfonylphenoxy)indan-2-yl]pyrrolidine] and Clc1cnccc1O[C@H]1c2ccccc2C[C@@H]1CN1CCCC1 (racemic) [Example 443, 3-chloro-4-(2-pyrrolidin-1-ylmethylindan-1-yloxy)pyridine] fall in the same range of inhibition at 10 µM: 20 to 50% for the first, 20 to 50% for the second.

Cc1cc(O[C@@H]2c3cc(Cl)cc(F)c3C[C@H]2N2CCC[C@@H](N)C2)ccc1S(=O)(=O)C(F)(F)F (racemic) [Example 92, (R)-1-[rac-trans-(1,2)-6-chloro-4-fluoro-1-(3-methyl-4-trifluoromethanesulfonylphenoxy)indan-2-yl]piperidin-3-ylamine] and N#Cc1ccc(O[C@H]2c3ccccc3CC[C@@H]2N2CCC[C@H](N)C2)cc1F (racemic) [Example 530, 4-[rac-trans-(1,2)-2-((S)-3-aminopiperidin-1-yl)-1,2,3,4-tetrahydronaphthalen-1-yloxy]-2-fluorobenzonitrile] fall in the same range of inhibition at 10 µM: 20 to 50% for the first, 20 to 50% for the second.

Cc1cc(C)c2cccnc2c1O[C@H]1c2ccccc2CC[C@@H]1N1CCC[C@@H](N)C1 (racemic) [Example 78, (R)-1-[rac-trans-(1,2)-1-(5,7-dimethylquinolin-8-yloxy)-1,2,3,4-tetrahydronaphthalen-2-yl]piperidin-3-ylamine] and c1ccc2c(c1)CC[C@H](N1CCOCC1)[C@H]2Oc1cnc2ccccc2c1 (racemic) [Example 400, 3-(rac-trans-(1,2)-2-morpholin-4-yl-1,2,3,4-tetrahydronaphthalen-1-yloxy)quinoline] fall in the same range of inhibition at 10 µM: 20 to 50% for the first, 20 to 50% for the second.

Work on N#Cc1ccc(O[C@H]2c3ccccc3CC[C@@H]2N2CCOCC2)cc1F (racemic) [Example 396, 2-fluoro-4-(rac-trans-(1,2)-2-morpholin-4-yl-1,2,3,4-tetrahydronaphthalen-1-yloxy)benzonitrile] yielded an inhibition at 10 µM of 20 to 50%.

Compared with CS(=O)(=O)c1ccc(O[C@H]2c3cc(Cl)cc(Cl)c3C[C@@H]2N2CCC[C@H]2CO)cc1 [Example 228, {(S)-1-[trans-(1S,2S)-4,6-dichloro-1-(4-methanesulfonylphenoxy)indan-2-yl]pyrrolidin-2-yl}methanol], CS(=O)(=O)c1ccc(O[C@H]2c3cc(Cl)cc(Cl)c3C[C@@H]2N2CC[C@@H](F)C2)cc1 [Example 100, (R)-1-[trans-(1S,2S)-4,6-dichloro-1-(4-methanesulfonylphenoxy)indan-2-yl]-3-fluoropyrrolidine] is lower in IC50: 1 to 10 µM for the first, under 1 µM for the second.

Compared with C[C@]1(O)CCN([C@H]2Cc3c(Cl)cc(Cl)cc3[C@@H]2Oc2ccc(S(C)(=O)=O)cc2)C1 (racemic) [Example 146, (S)-1-[(1S,2S)-4,6-dichloro-1-(4-methanesulfonylphenoxy)indan-2-yl]-3-methylpyrrolidin-3-ol], CN(C)CCCN(C)[C@H]1Cc2c(Cl)cc(Cl)cc2[C@@H]1Oc1ccc(S(C)(=O)=O)cc1 [Example 672, N-[trans-(1S,2S)-4,6-dichloro-1-(4-methanesulfonylphenoxy)indan-2-yl]-N,N′,N′-trimethylpropane-1,3-diamine] is lower in IC50: 1 to 10 µM for the first, under 1 µM for the second.

Cc1cc(=O)cc(C)n1-c1ccc(O[C@H]2c3cc(Cl)cc(Cl)c3C[C@@H]2N2CC[C@@H](O)C2)c(F)c1 [Example 324, 1-{4-[(1S,2S)-4,6-dichloro-2-((R)-3-hydroxypyrrolidin-1-yl)indan-1-yloxy]-3-fluorophenyl}-2,6-dimethyl-1H-pyridin-4-one] and Cn1ccn(-c2ccc(O[C@H]3c4cc(Cl)cc(Cl)c4C[C@@H]3N3CC[C@@H](O)C3)c(F)c2)c1=O [Example 329, 1-{4-[trans-(1S,2S)-4,6-dichloro-2-((R)-3-hydroxypyrrolidin-1-yl)indan-1-yloxy]-3-fluorophenyl}-3-methyl-1,3-dihydroimidazol-2-one] cannot be ordered by IC50: under 1 µM for the first, under 1 µM for the second.

N#Cc1ccc(O[C@H]2c3cc(Cl)cc(Cl)c3C[C@@H]2N2CC[C@@H](O)C2)c(F)c1 [Example 554, 4-[trans-(1S,2S)-4,6-dichloro-2-((R)-3-hydroxypyrrolidin-1-yl)indan-1-yloxy]-3-fluorobenzonitrile] and CC(C)c1nccn1-c1ccc(O[C@H]2c3cc(Cl)cc(Cl)c3C[C@@H]2N2CC[C@@H](O)C2)cc1 [Example 732, (R)-1-{trans-(1S,2S)-4,6-Dichloro-1-[4-(2-isopropyl-imidazol-1-yl)-phenoxy]-indan-2-yl}-pyrrolidin-3-ol] fall in the same range of IC50: 1 to 10 µM for the first, 1 to 10 µM for the second.

NC(=O)c1cccc(O[C@@H]2c3ccccc3C[C@H]2N2C[C@H]3CNC[C@H]3C2)c1 (racemic) [Example 410, 3-[rac-trans-(1,2)-2-(hexahydropyrrolo[3,4-c]pyrrol-2-yl)indan-1-yloxy]benzamide] and O=c1oc2ccc(O[C@@H]3c4ccccc4C[C@H]3N3C[C@H]4CNC[C@H]4C3)cc2s1 (racemic) [Example 577, 5-[rac-trans-(1,2)-2-(hexahydropyrrolo[3,4-c]pyrrol-2-yl)indan-1-yloxy]benzo[1,3]oxathiol-2-one] fall in the same range of IC50: 1 to 10 µM for the first, 1 to 10 µM for the second.

First: N[C@@H]1CCCN([C@H]2Cc3c(Cl)cc(Cl)cc3[C@@H]2Oc2ccc(-n3ccnc3)cc2)C1 [Example 98, (R)-1-[trans-(1S,2S)-4,6-dichloro-1-(4-imidazol-1-ylphenoxy)indan-2-yl]piperidin-3-ylamine]
Second: N[C@@H]1CCCN([C@@H]2Cc3c(Cl)cc(Cl)cc3[C@H]2Oc2ccccc2)C1 [Example 23, (R)-1-(trans-(1R,2R)-4,6-dichloro-1-phenoxyindan-2-yl)piperidin-3-ylamine]
The IC50 of the first is lower: under 1 µM for the first, 1 to 10 µM for the second.

First: CS(=O)(=O)c1ccc(O[C@H]2c3ccccc3CC[C@@H]2N2CCC[C@@H](N)C2)cc1 (racemic) [Example 73, (R)-1-[rac-trans-(1,2)-1-(4-methanesulfonylphenoxy)-1,2,3,4-tetrahydronaphthalen-2-yl]piperidin-3-ylamine]
Second: CS(=O)(=O)c1ccc(O[C@H]2c3ccccc3C[C@@H]2NC2CCCC2)cc1 (racemic) [Example 623, Cyclopentyl-[1-(4-methanesulfonylphenoxy)indan-2-yl]amine]
The IC50 of the first is lower: under 1 µM for the first, 1 to 10 µM for the second.

Compared with CS(=O)(=O)c1ccccc1O[C@H]1c2cc(Cl)cc(Cl)c2C[C@@H]1N1CCC[C@@H](N)C1 [Example 25, (R)-1-[(1S,2S)-4,6-dichloro-1-(2-methanesulfonylphenoxy)indan-2-yl]piperidin-3-ylamine], N[C@@H]1CCCN([C@H]2CCc3ccccc3[C@@H]2Oc2cccc3ccc(Cl)nc23)C1 (racemic) [Example 41, (R)-1-[rac-trans-(1,2)-1-(2-chloroquinolin-8-yloxy)-1,2,3,4-tetrahydronaphthalen-2-yl]piperidin-3-ylamine] is higher in IC50: under 1 µM for the first, 1 to 10 µM for the second. The first is the more potent here.

NS(=O)(=O)c1ccc(O[C@@H]2c3ccccc3C[C@H]2NCC2CCC2)c(F)c1 (racemic) [Example 718, 4-[rac-trans-(1,2)-2-(Cyclobutylmethyl-amino)-indan-1-yloxy]-3-fluoro-benzenesulfonamide] and N#Cc1ccc(O[C@H]2c3ccccc3CC[C@@H]2N2CCC[C@H](N)C2)c(F)c1 (racemic) [Example 533, 4-[rac-trans-(1,2)-2-((S)-3-aminopiperidin-1-yl)-1,2,3,4-tetrahydronaphthalen-1-yloxy]-3-fluorobenzonitrile] cannot be ordered by IC50: under 1 µM for the first, under 1 µM for the second.

First: CN(C1CCCNC1)[C@@H]1Cc2ccccc2[C@H]1Oc1cccc2[nH]ccc12 (mixture of isomers) [Example 214, [rac-trans-(1,2)-1-(1H-indol-4-yloxy)indan-2-yl]methylpiperidin-3-ylamine]
Second: N[C@H]1CCCN([C@@H]2Cc3ccccc3[C@H]2Oc2cccc(N3CCNCC3)c2)C1 (racemic) [Example 169, (S)-1-[rac-trans-(1,2)-1-(3-piperazin-1-ylphenoxy)indan-2-yl]piperidin-3-ylamine]
The IC50 of the first is higher: 1 to 10 µM for the first, under 1 µM for the second.

Compared with FC(F)(F)CCN[C@@H]1CCCN([C@H]2Cc3c(Cl)cc(Cl)cc3[C@@H]2Oc2ccc(-n3cncn3)cc2)C1 [Example 221, {(R)-1-[trans-(1S,2S)-4,6-dichloro-1-(4-[1,2,4]triazol-1-ylphenoxy)indan-2-yl]piperidin-3-yl}-(3,3,3-trifluoropropyl)amine], CC(=O)Nc1cccc(O[C@H]2c3cc(Cl)ccc3C[C@@H]2N2CCNCC2)c1 (racemic) [Example 657, N-[3-(rac-trans-(1,2)-6-chloro-2-piperazin-1-ylindan-1-yloxy)phenyl]acetamide] is higher in IC50: under 1 µM for the first, 1 to 10 µM for the second.

N#Cc1ccc(O[C@H]2c3ccccc3C[C@@H]2N2CCCC2)cc1 (racemic) [Example 468, 4-(rac-trans-(1,2)-2-pyrrolidin-1-ylindan-1-yloxy)benzonitrile] and Cc1ccc2c(c1)C(Oc1ccc(S(N)(=O)=O)cc1)C(N1CCCC1)C2 (racemic) [Example 475, 4-(rac-trans-(1,2)-6-methyl-2-pyrrolidin-1-ylindan-1-yloxy)benzenesulfonamide] fall in the same range of IC50: 1 to 10 µM for the first, 1 to 10 µM for the second.
